Measured values taken from patent US20070128217A1 (priority 2003, published 2007).

How the values were obtained:
[1] = tested on: antibodies in sera from SARS patients (sera 1a, 1b, 2, 6, 37, 62, London, SARS-yellow, SARS-green); type: binding, human
[2] = tested on: control sera (pooled serum of ten healthy LUMC hospital workers; commercial negative donor pooled serum from the Dutch bloodbank); type: binding, human
[3] = tested on: rabbit serum obtained by immunizing a rabbit with the SARS-CoV strain Frankfurt 1; type: binding; parameters: Binding of a rabbit serum to linear peptides / Binding of a rabbit serum to looped peptides / Rabbit serum linear peptides / Rabbit serum looped peptides / Binding of a rabbit serum to linear peptides of protein N of SARS-CoV Urbani (Rabbit serum linear peptides) / Binding of a rabbit serum to looped/cyclic peptides of protein N of SARS-CoV Urbani (Rabbit serum looped peptides): unit not given here

Sequence | Binding of serum 1a to linear peptides of protein E of SARS-CoV Urbani [1] | Binding of serum 1a to looped/cyclic peptides of protein E of SARS-CoV Urbani [1] | Binding of serum 1b to linear peptides of protein E of SARS-CoV Urbani [1] | Binding of serum 1b to looped/cyclic peptides of protein E of SARS-CoV Urbani [1] | Binding of serum 2 to linear peptides of protein E of SARS-CoV Urbani [1] | Binding of serum 2 to looped/cyclic peptides of protein E of SARS-CoV Urbani [1] | Binding of serum 6 to linear peptides of protein E of SARS-CoV Urbani [1] | Binding of serum 6 to looped/cyclic peptides of protein E of SARS-CoV Urbani [1] | Binding of serum 37 to linear peptides of protein E of SARS-CoV Urbani [1] | Binding of serum 37 to looped/cyclic peptides of protein E of SARS-CoV Urbani [1] | Binding of serum 62 to linear peptides of protein E of SARS-CoV Urbani [1] | Binding of serum 62 to looped/cyclic peptides of protein E of SARS-CoV Urbani [1] | Binding of serum London to linear peptides of protein E of SARS-CoV Urbani [1] | Binding of serum London to looped/cyclic peptides of protein E of SARS-CoV Urbani [1] | Binding of serum SARS-green to linear peptides of protein E of SARS-CoV Urbani [1] | Binding of serum SARS-green to looped/cyclic peptides of protein E of SARS-CoV Urbani [1] | Binding of serum SARS-yellow to linear peptides of protein E of SARS-CoV Urbani [1] | Binding of serum SARS-yellow to looped/cyclic peptides of protein E of SARS-CoV Urbani [1] | Binding of Control Serum Blood-Bank to Looped peptides [2] | Binding of Control serum Blood-bank to linear peptides [2] | further results
VFLLVTLAILTALRL | 0.7 | 0.4 | 0.4 | 0.2 | 0.4 | 0.4 | 0.5 | 0.2 | 0.6 | 0.4 | 0.6 | 0.5 | 0.5 | 0.3 | 0.4 | 0.2 | 0.0 | 0.5 | 0.4 | 0.5 | Binding of Control serum LUMC to linear peptides [2]: 0.3; Binding of Control serum LUMC to looped peptides [2]: 0.5; Binding of a rabbit serum to linear peptides [3]: 0.4; Binding of a rabbit serum to looped peptides [3]: 0.3
VLLFLAFVVFLLVTL | 0.8 | 0.6 | 0.9 | 0.5 | 0.8 | 0.5 | 0.9 | 0.4 | 0.8 | 0.6 | 0.8 | 0.8 | 0.6 | 0.4 | 0.5 | 0.3 | 0.3 | 0.6 | 0.5 | 0.8 | Binding of Control serum LUMC to linear peptides [2]: 0.5; Binding of Control serum LUMC to looped peptides [2]: 0.7; Binding of a rabbit serum to linear peptides [3]: 0.5; Binding of a rabbit serum to looped peptides [3]: 0.5
VSEETGTLIVNSVLL | 0.8 | 0.7 | 0.5 | 0.6 | 0.3 | 0.6 | 0.4 | 0.5 | 0.5 | 0.7 | 0.7 | 0.9 | 0.5 | 0.5 | 0.4 | 0.6 | 0.1 | 0.7 | 0.9 | 0.8 | Binding of Control serum LUMC to linear peptides [2]: 0.5; Binding of Control serum LUMC to looped peptides [2]: 0.7; Binding of a rabbit serum to linear peptides [3]: 0.4; Binding of a rabbit serum to looped peptides [3]: 0.1
